Here are results for 26 molecules from patent US5935966A, “Pyrimidine carboxylates and related compounds and methods for treating inflammatory conditions” (Signal Pharmaceuticals, Inc., priority 1996, dated 1999).

For one experiment, the system named is delayed-type hypersensitivity response to oxazolone.
Assay: not given
The settings on record: Morris et al. 1990; cited from earlier work.
Take `O=P1(N(CCCl)CCCl)NCCCO1` (stereo not drawn) [cyclophosphamide]: the “activity in delayed-type hypersensitivity (oxazolone) model” value is reported as “active”.

Another experiment deals with NFκB and AP-1. The experiment in a line: NFκB and AP-1 luciferase reporter assays in stable Jurkat T-cells (PMA/PHA stimulated). Particulars: Homo sapiens, average of NFκB and AP-1 assays, read-out: ICm (average of the measurements obtained from the NFκB and AP-1 assays). It is filed as cell-based, human. From the text: Stable human Jurkat T-cells containing an NFκB binding site (from the MHC promoter) fused to a minimal SV-40 promoter driving luciferase expression were used in this experiment. Cells were split to 3×10^5 cells/mL every 2-3 days (cell concentration should not exceed 1×10^6 cells/mL to keep the cells proliferating in log phase). These cells were counted, resuspended in fresh medium containing 10% Serum-Plus at a density of 1×10^6 cells/mL and plated in 96 well round bottom plates (200 μ.LAMBDA. per well) 18 hours prior to starting the experiment.
Compounds of this invention, dissolved in dimethyl sulfoxide (3.3, 0.33 and 0.03 μg/mL), were then added to the 96 well plates containing the cells and the plates were incubated for 0.5 h at 37° C. Then 50 ng/mL of phorbol 12-myristate-13-acetate (PMA) and 1 μg/mL of phytohemagglutinin (PHA) were added to each well and the cells were incubated for an additional 5 h at 37° C. The plates were centrifuged at 2200 RPM for 3 minutes at room temperature and then the medium was removed. To each well was added 60 μL of cell lysis buffer and the plates were left at room temperature for 0.25 h. Then 40 μL of each cell extract was transferred to a black 96 well plate and 50 μL of luciferase substrate buffer was added. Luminescence was immediately measured using a Packard TopCount.
For AP-1, the assay was run as described above for NFκB except stable Jurkat T-cells were used that contained a collagenase promoter driving luciferase expression. In addition, the concentration of PMA used was 5 ng/mL.
The IC50 values reported in Table 3 are the average of the measurements obtained from the NFκB and AP-1 assays described above.
In the case of `CCCC(=O)c1cnc(N(C)N2C(=O)C=C(C)C2=O)nc1CC` [Example 107, 5-BUTANOYL 2-[N-(1'-AMINOCITRACONAMIDO-N-METHYL)]-4-ETHYLPYRIMIDINE], the IC50 amounted to 500 nM.
Take `CCOC(=O)c1cnc(NN2C(=O)C=C(C)C2=O)nc1C1CC1` [Example 108, ETHYL 2-[N-(1'-AMINOCITRACONAMIDO)]-4-CYCLOPROPYLPYRIMIDINE-5-CARBOXYLATE]: the IC50 came to 1500 nM.
Still for that read-out and setting: next, `CCOC(=O)c1cnc(N(C)N2C(=O)C=C(C)C2=O)nc1C1CC1` [Example 109, ETHYL 2-[N-(1'-AMINOCITRACONAMIDO-N-METHYL)]-4-CYCLOPROPYLPYRIMIDINE-5-CARBOXYLATE]: 200 nM; `CCc1nc(N(C)N2C(=O)C=C(C)C2=O)ncc1CO` [Example 111, 2-[N-(1'-AMINOCITRACONAMIDO)-N-METHYL]-4-ETHYL-5-(HYDROXYMETHYL)PYRIMIDINE]: 4900 nM; `CCc1nc(N(C)N2C(=O)C=C(C)C2=O)ncc1COC` [Example 112, 2-[N-(1'-AMINOCITRACONAMIDO)-N-METHYL]-4-ETHYL-5-(METHOXYMETHYL)PYRIMIDINE]: 600 nM.
For `COCc1cnc(NN2C(=O)C=C(C)C2=O)nc1C(F)(F)F` [Example 113, 2-[N-(1'-AMINOCITRACONAMIDO)]-5-(METHOXYMETHYL)-4-TRIFLUOROMETHYLPYRIMIDINE], the IC50 is 1000 nM.
In the case of `CCOC(=O)OCc1cnc(NN2C(=O)C=C(C)C2=O)nc1C(F)(F)F` [Example 114, 2-[N-(1'-AMINOCITRACONAMIDO)]-5-(ETHOXYMETHYLCARBONATE)-4-TRIFLUOROMETHYLPYRIMIDINE], the IC50 came to 1100 nM.
In the case of `CCOC(=O)c1cnc(-c2ccccc2)nc1NN1C(=O)C=C(C)C1=O` [Example 115], the IC50 turned out to be 30 nM.
Regarding `CCOC(=O)c1cnc(-c2ccccc2)nc1N(C)N1C(=O)C=C(C)C1=O` [Example 116, ETHYL-4-[N-(1'-AMINOCITRACONAMIDO)-N-METHYL]-2-PHENYLPYRIMIDINE-5-CARBOXYLATE], the IC50 was 1400 nM.
Still for that read-out and setting: next, `CCOC(=O)c1cnc(-c2ccccc2)nc1N(C(C)=O)N1C(=O)C=C(C)C1=O` [Example 117, ETHYL 4-[N-ACETYL-N-(1'-AMINOCITRACONAMIDO)]-2-PHENYLPYRIMIDINE-5-CARBOXYLATE]: 4000 nM; `CCOC(=O)c1cnc(C)nc1NN1C(=O)C=C(C)C1=O` [Example 118, ETHYL 4-[N-(1'-AMINOCITRACONAMIDO)]-2-METHYLPYRIMIDINE-5-CARBOXYLATE]: 17000 nM; `CCOC(=O)c1cnc(Cc2ccccc2)nc1NN1C(=O)C=C(C)C1=O` [Example 119, ETHYL 4-[N-(1'-AMINOCITRACONAMIDO)]-2-BENZYLPYRIMIDINE-5-CARBOXYLATE]: 7000 nM.
On to `CCOC(=O)c1cnc(-c2cccc([N+](=O)[O-])c2)nc1NN1C(=O)C=C(C)C1=O` [Example 120, ETHYL 4-[N-(1'-AMINOCITRACONAMIDO)]-2-(3'-NITROPHENYL)-PYRIMIDINE-5-CARBOXYLATE], for which the IC50 came out at 8000 nM.
On the same count and under the same terms, next, `CCOC(=O)c1cnc(-c2ccc(C(F)(F)F)cc2)nc1NN1C(=O)C=C(C)C1=O` [Example 121, ETHYL 4-[N-(1'-AMINOCITRACONAMIDO)]-2-(4'-TRIFLUOROMETHYLPHENYL)PYRIMIDINE-5-CARBOXYLATE]: 400 nM; `CCOC(=O)c1cnc(-c2cccs2)nc1NN1C(=O)C=C(C)C1=O` [Example 122, ETHYL 4-[N-(1'-AMINOCITRACONAMIDO)]-2-(2'-THIENYL)-PYRIMIDINE-5-CARBOXYLATE]: 20 nM; `CCOC(=O)c1cnc(-c2cccs2)nc1N(C)N1C(=O)C=C(C)C1=O` [Example 123, ETHYL 4-[N-(1'-AMINOCITRACONAMIDO)-N-METHYL]-2-(2'-THIENYL)-PYRIMIDINE-5-CARBOXYLATE]: 800 nM.
The same measure, in the same setting: next, `CCOC(=O)c1cnc(Cc2ccc(Cl)c(Cl)c2)nc1NN1C(=O)C=C(C)C1=O` [Example 124, ETHYL 4-[N-(1'-AMINOCITRACONAMIDO)]-2-(3',4'-DICHLOROBENZYL)-PYRIMIDINE-5-CARBOXYLATE]: 4000 nM.
In the case of `CCc1nc(N(C)N2C(=O)C=C(C)C2=O)ncc1-c1nc(C)co1` [Example 126, 2-[N-(1'-AMINOCITRACONAMIDO)-N-METHYL]-4-ETHYL-5-[2"-(4"-METHYL)OXAZOLYL]PYRIMIDINE], the IC50 is 1000 nM.
Still for that read-out and setting: next, `CC1=CC(=O)N(N(C)c2ncc(-c3nc(C)co3)c(-c3cccs3)n2)C1=O` [Example 127, 2-[N-(1'-AMINOCITRACONAMIDO)-N-METHYL]-5-[2"-(4"-METHYL)OXAZOLYL]-4-(2'"-THIENYL)PYRIMIDINE]: 750 nM; `CCc1nc(N(C)N2C(=O)C=C(C)C2=O)ncc1-c1noc(C)n1` [Example 129, 2-[N-(1'-AMINOCITRACONAMIDO)-N-METHYL]-4-ETHYL-5-[5"-METHYL-1",2",4"-OXADIAZOLYL]PYRIMIDINE]: 1420 nM; `CC1=CC(=O)N(Nc2nc(-c3cccs3)ncc2-c2cc(C)no2)C1=O` [Example 132, 4-[N-(1'-AMINOCITRACONAMIDO)]-5-(3"-METHYLISOXAZOL-5'-YL)-2-(2'"-THIENYL)PYRIMIDINE]: 190 nM.
As to `CC1=CC(=O)N(Nc2nc(-c3cccs3)ncc2-c2nc(C)co2)C1=O` [Example 137, 4-[N-(1'-AMINOCITRACONAMIDO)]-5-(4"-METHYLOXAZOL-2-YL)-2-(2'"-THIENYL)PYRIMIDINE], the IC50 was 310 nM.
Take `CC1=CC(=O)N(Nc2nc(-c3cccs3)ncc2C2=NCCO2)C1=O` [Example 140, 4-[N-(1'-AMINOCIACONAMIDO)]-5-(4",5"-DIHYDRO-2"-OXAZOLYL)-2-(2'"-THIENYL)PYRIMIDINE]: the IC50 came out at 200 nM.
Consider `CC1=CC(=O)N(Nc2nc(-c3cccs3)ncc2-c2nnc(C)o2)C1=O` [Example 142, 4-[N-(1'-AMINOCITRACONAMIDO)]-5-(5"-METHYL-1",3",4"-OXADIAZOL-2"-YL)-2-(2'"-THIENYL)PYRIMIDINE], for which the IC50 came out at 250 nM.
For the molecule `CC1=CC(=O)N(Nc2nc(-c3cccs3)ncc2C#N)C1=O` [Example 143, 4-[N-(1'-AMINOCITRACONAMIDO)]-5-CYANO-2-(2'-THIENYL)PYRIMIDINE], the IC50 was 5150 nM.

The subject of the next experiment is popliteal lymph node (graft vs. host).
Assay: not given
The settings on record: Morris et al. 1990; cited from earlier work.
With `O=P1(N(CCCl)CCCl)NCCCO1` (stereo not drawn) [cyclophosphamide], the “activity in popliteal lymph node (graft vs. host) model” value was “active”.
